Tested on: human myeloma cell line MM.1S
Experiment: SILAC acetylated-lysine peptide profiling, HDAC inhibitor vs DMSO (light/heavy ratio)
Assay type: cell-based
Text: An embodiment of the invention comprises utilizing the SILAC method in order to quantitate changes in protein expression between two or more populations of cells. The SILAC method is a technique based on mass spectrometry that detects differences in protein abundance among samples using non-radioactive isotopic labeling. The SILAC method is known in the art, and described in detail in Ong et al., “Stable Isotope Labeling by Amino Acids in Cell Culture, SILAC, as a Simple and Accurate Approach to Expression Proteomics”, Molecular & Cellular Proteomics, vol. 1, pp. 376-386 (2002), which is incorporated herein by reference in its entirety.
Briefly, the SILAC method involves growing two populations of cells in cell culture. The first population of cells is grown in growth media containing normal amino acids (“normal media”). The second population of cells is grown in media lacking a standard essential amino acid (such as lysine), but is then supplemented with a non-radioactive, isotopically labeled form of that essential amino acid (such as lysine labeled with ^13C atoms, rather than normal ^12C atoms), which is called “heavy media”. When the two populations of cells are each growing in the medium, they incorporate the amino acids into all of their proteins. The growth of cells maintained in the heavy media is no different from that in normal media. All peptides containing the heavy amino acids are heavier than their normal counterparts. The cells from each of the two populations of cells are lysed. The lysates from each of the two cell populations are then combined. The combined cell lysates are then analyzed by mass spectrometry. Pairs of chemically identical peptides of different stable isotope composition can be differentiated in a mass spectrometer due to their difference in mass. The ratio of peak intensities in the mass spectrum for such peptide pairs reflects the abundance ratio for the two proteins.
This example describes SILAC studies that were performed to compare the effects of three different HDAC inhibitors (Compound A, Compound B, and tubastatin A) to a control on a human multiple myeloma cell line. The HDAC inhibitors were also compared amongst themselves to determine differences in their effects.
A human myeloma cell line MM.1S was grown using either ^12C (light) or ^13C (heavy) lysine containing culture medium. The “heavy” cells were treated with DMSO as the control, and the “light” cells were treated with a single HDAC inhibitor at 37° C. for 6 hours. The heavy and light cells were lysed, and the lysates were mixed in 1:1 ratio and digested with the protease trypsin. The acetylated lysine containing peptides (due to the action of the HDAC inhibitor) in the digested peptide pool were captured by a non-specific anti-acetylated lysine antibody cocktail (the antibodies identify both light and heavy acetylated peptides), and subjected to mass spectrometry analysis in order to identify thousands of individual peptides.
Thousands of peptides were identified in pairs (^12C and ^13C) due to their known mass differences. The amino acid sequence and quantitative ratio (Light/Heavy) of a given peptide in two differentially treated cell lysates were then determined and annotated with their possible protein (gene) sources.
As stated above, three HDAC inhibitors (Compound A, Compound B, and Tubastatin A) were used. Thus, the SILAC method was performed three times, with a different HDAC inhibitor compared to a control each time. Accordingly, there are three pairs of quantitative data in the table below, i.e., Compound A:DMSO, Compound B:DMSO, and Tubastatin A:DMSO. A cut-off of 1.30 fold of change (increase or decrease) was then used to determine “changed” or “+” in the table, and any peptides with a fold of change less than 1.3 fold were determined to be “unchanged” or “0” in the table. Those peptides that were not identified were marked as “NA” in the table. […]

SMILES: O=C(NO)c1cnc(NC2(c3cccc(F)c3)CCCCC2)nc1 [Compound B, 2-((1-(3-fluorophenyl)cyclohexyl)amino)-N-hydroxypyrimidine-5-carboxamide]
- L/H ratio of acetylated peptide LDHLAEK(ac)FR (SEQ ID NO: 20) (ACTN1 [398], log 2 scale, drug vs DMSO): 0.00
- L/H ratio of acetylated peptide […](ac)FVYQAK (SEQ ID NO: 126) (ADAR [757], log 2 scale, drug vs DMSO): 0.00
- light to heavy ratio (L/H ratio) of acetylated peptide, log 2 scale (ADINTK(ac)WAATR (SEQ ID NO: 202), Ribosomal protein L14 variant [85], RPL14): 0.00
- light to heavy ratio (L/H ratio) of acetylated peptide, log 2 scale (ADK(ac)DYHFK (SEQ ID NO: 191), Isoform 2 of Nucleophosmin [27], NPM1): 0.00
- light to heavy ratio (L/H ratio) of acetylated peptide TTLLYK(ac)LK (SEQ ID NO: 624) (ADP-ribosylation factor-like protein 11 [31], gene ARL11, inhibitor:DMSO): 0.00 log 2
- light to heavy ratio (L/H ratio) of acetylated peptide IFK(ac)SDGLR (SEQ ID NO: 280) (ADP/ATP translocase 1 [166], SLC25A4, drug:DMSO): 0.00 log 2
- light to heavy ratio (L/H ratio) of acetylated peptide ITK(ac)SDGIR (SEQ ID NO: 587) (ADP/ATP translocase 3 [166], gene SLC25A6, inhibitor:DMSO): 0.00 log 2
- L/H ratio of acetylated peptide (AELSK(ac)LVIVAK (SEQ ID NO: 370), UPF0556 protein C19orf10 [161], C19orf10): 1.00 log 2
- L/H ratio of acetylated peptide HLSDSINQK(ac)HFEQAIER (AFG3L2 [543], log 2 scale, drug vs DMSO): 0.00
- L/H ratio of acetylated peptide (AFQLK(ac)SR (SEQ ID NO: 439), ribonucleoprotein PTB-binding 1 [579], RAVER1): −0.89 log 2
- light to heavy ratio (L/H ratio) of acetylated peptide, log 2 scale (AFYK(ac)SFSK (SEQ ID NO: 170), Endoplasmin [360], HSP90B1): 0.00
- L/H ratio of acetylated peptide (AK(ac)FESMAEEK (SEQ ID NO: 402), Hematopoietic lineage cell-specific protein [241], HCLS1): 1.00 log 2
- light to heavy ratio (L/H ratio) of acetylated peptide, log 2 scale (ALDLNLK(ac)HQILPK (SEQ ID NO: 248), Cytochrome b-c1 complex subunit 7 [72], UQCRB): 0.00
- L/H ratio of acetylated peptide LK(ac)[…] (SEQ ID NO: 21) (ANP32B [101], log 2 scale, drug vs DMSO): 0.00
- L/H ratio of acetylated peptide […](ac)SLYGK (SEQ ID NO: 22) (ANXA6 [63], log 2 scale, drug vs DMSO): 0.00
- L/H ratio of acetylated peptide LGTDESK(ac)FNAVLCSR (SEQ ID NO: 7) (ANXA11 [478], log 2 scale, drug vs DMSO): 0.50
- L/H ratio of acetylated peptide MYFDK(ac)[…] (SEQ ID NO: 23) (ATAD3A [491], log 2 scale, drug vs DMSO): 0.00
- L/H ratio of acetylated peptide (ATAEEMTK(ac)YHSDEYIK (SEQ ID NO: 403), Histone deacetylase 2[161], HDAC2): 0.78 log 2
- L/H ratio of acetylated peptide IVEYEK(ac)EMEK (SEQ ID NO: 24) (ATP5H [117], log 2 scale, drug vs DMSO): 0.00
- L/H ratio of acetylated peptide YYNK(ac)YINVK (SEQ ID NO: 12) (ATP5J2 [54], log 2 scale, drug vs DMSO): −0.43
- light to heavy ratio (L/H ratio) of acetylated peptide QNK(ac)LEQVEK (SEQ ID NO: 271) (ATP synthase subunit O mitochondrial [54], ATP50, drug:DMSO): 0.00 log 2
- light to heavy ratio (L/H ratio) of acetylated peptide ISEQSDAK(ac)LK (SEQ ID NO: 600) (ATP synthase subunit alpha mitochondrial [539], gene ATP5A1, inhibitor:DMSO): 0.00 log 2
- light to heavy ratio (L/H ratio) of acetylated peptide […](ac)ETIAK (SEQ ID NO: 307) (ATP synthase subunit b mitochondrial [233], ATP5F1, drug:DMSO): 0.00 log 2
- light to heavy ratio (L/H ratio) of acetylated peptide […](ac)QLTVK (SEQ ID NO: 279) (ATP synthase subunit g mitochondrial [66], ATP5L, drug:DMSO): 0.00 log 2
- light to heavy ratio (L/H ratio) of acetylated peptide ELDPIQK(ac)LFVDK (SEQ ID NO: 365) (ATP synthase-coupling factor 6 mitochondrial [41], ATP5J, drug:DMSO): −0.48 log 2
- light to heavy ratio (L/H ratio) of acetylated peptide FEDPK(ac)FEVIEKPQA (SEQ ID NO: 325) (ATP synthase-coupling factor 6 mitochondrial [99], ATP5J, drug:DMSO): −0.50 log 2
- light to heavy ratio (L/H ratio) of acetylated peptide, log 2 scale (AVEEK(ac)[…] (SEQ ID NO: 172), 78 kDa glucose-regulated protein [601], HSPA5): 0.00
- L/H ratio of acetylated peptide (AVSMDNSNK(ac)YTK (SEQ ID NO: 396), Forkhead box protein O3 [259], FOXO3): 0.45 log 2
- L/H ratio of acetylated peptide (AYHLQK(ac)STCGK (SEQ ID NO: 443), 60S ribosomal protein L37 [31], RPL37): 0.42 log 2
- light to heavy ratio (L/H ratio) of acetylated peptide NAYVWTLK(ac)GR (SEQ ID NO: 361) (Actin-related protein 2/3 complex subunit 1B [82], ARPC1B, ARPC1A, drug:DMSO): −1.00 log 2
- light to heavy ratio (L/H ratio) of acetylated peptide VFDPQNDK(ac)[…] (SEQ ID NO: 362) (Actin-related protein 2/3 complex subunit 3 [155], ARPC3, drug:DMSO): 0.45 log 2
- light to heavy ratio (L/H ratio) of acetylated peptide AFAK(ac)ELFLGK (SEQ ID NO: 627) (Acyl-CoA dehydrogenase family member 9 mitochondrial [41], gene ACAD9, inhibitor:DMSO): 0.00 log 2
